Results taken from ChEMBL document CHEMBL1201862, “PubChem BioAssay data set” (2004).
Activity calls are given as the source filed them.

Key:
[1] = molecular target: DNA dC->dU-editing enzyme APOBEC-3G (Homo sapiens, UniProt Q9HC16); assay type: functional;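 further: Dose-response counterscreen measuring inhibition of APOBEC3G DNA deaminase activity, run while confirming APOBEC3A inhibitors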
[2] = molecular target: DNA dC->dU-editing enzyme APOBEC-3A (Homo sapiens, UniProt P31941); test: Dose Response confirmation of small molecule APOBEC3A DNA Deaminase Inhibitors via a fluorescence-based single-stranded DNA deaminase assay. [Related pubchem assays (depositor defined):AID493011, AID493024]; assay type: functional
Insulin-degrading enzyme = molecular target: T1, Insulin-degrading enzyme (Homo sapiens, UniProt P14735); test: Dose Response: Fluorescence polarization-based cell-based high throughput dose response assay for inhibitors of insulin-degrading enzyme (IDE). [Related pubchem assays: 434962 (Primary screen (IDE inhibitors in singlicate)), 449730 (Counterscreen (Cytotoxicity in triplicate)), 435028 (Confirmation (IDE inhibitors in triplicate)), 434984 (Summary …; assay type: functional
T1 sequence (P14735 whole entry): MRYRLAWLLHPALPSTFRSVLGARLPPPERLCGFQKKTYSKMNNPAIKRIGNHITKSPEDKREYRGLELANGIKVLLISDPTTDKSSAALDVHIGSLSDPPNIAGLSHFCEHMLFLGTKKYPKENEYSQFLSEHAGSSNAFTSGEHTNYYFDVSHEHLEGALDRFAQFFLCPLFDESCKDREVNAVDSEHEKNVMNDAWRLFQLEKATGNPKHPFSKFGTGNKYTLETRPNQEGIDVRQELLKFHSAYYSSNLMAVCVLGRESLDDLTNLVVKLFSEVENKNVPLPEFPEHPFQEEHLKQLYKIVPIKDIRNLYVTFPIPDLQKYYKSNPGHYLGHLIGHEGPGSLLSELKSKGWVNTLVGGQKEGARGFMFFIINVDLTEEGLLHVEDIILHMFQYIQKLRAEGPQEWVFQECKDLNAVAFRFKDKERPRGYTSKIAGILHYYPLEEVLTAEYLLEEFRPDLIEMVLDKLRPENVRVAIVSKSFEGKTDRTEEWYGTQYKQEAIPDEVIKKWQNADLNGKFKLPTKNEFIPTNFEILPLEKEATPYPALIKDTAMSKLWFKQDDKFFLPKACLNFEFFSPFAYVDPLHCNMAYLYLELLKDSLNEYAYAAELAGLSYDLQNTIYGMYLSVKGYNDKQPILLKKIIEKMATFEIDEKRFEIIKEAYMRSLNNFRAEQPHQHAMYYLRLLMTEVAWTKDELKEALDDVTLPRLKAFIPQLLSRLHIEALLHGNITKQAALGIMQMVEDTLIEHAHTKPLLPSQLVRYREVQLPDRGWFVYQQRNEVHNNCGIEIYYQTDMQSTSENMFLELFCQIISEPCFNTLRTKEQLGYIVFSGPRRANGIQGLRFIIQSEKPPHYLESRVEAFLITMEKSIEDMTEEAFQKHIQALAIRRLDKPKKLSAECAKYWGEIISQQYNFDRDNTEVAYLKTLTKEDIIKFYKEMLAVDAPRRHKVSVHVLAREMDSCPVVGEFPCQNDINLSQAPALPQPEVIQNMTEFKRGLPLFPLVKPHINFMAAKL

[3] = cytotoxicity in HEK-293T cells, dose response, cytotoxicity control for BCR NF-kB inhibitor project, luminescence, B-cell screen hits (AID 489021); assay type: functional, cell-based;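 further: HEK-293T cells carrying an NF-kB luciferase reporter; cells exposed to compound for about 14 hours before viability readout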
[4] = Counterscreen for IDE inhibitors: Luminescence-based cell-based high throughput dose response assay to identify compounds that are cytotoxic to HEK cells. [Related pubchem assays: 434962 (Primary screen (IDE inhibitors in singlicate)), 449730 (Counterscreen (Cytotoxicity in triplicate)), 435028 (Confirmation (IDE inhibitors in triplicate)) …; assay type: functional; conditions: HEK293
Large T antigen = Large T antigen (Simian virus 40, UniProt P03070); assay type: functional, Betapolyomavirus macacae;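 further: Confirmatory-stage PubChem screen for compounds that inhibit SV40 T antigen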
Protein Rev = molecular target: T2, Protein Rev (Human immunodeficiency virus type 1 group M subtype B (isolate WMJ22)(HIV-1), UniProt P05866); test: HIV-1 Rev-RRE RNA binding disruptors, dose response, biochemical, protein-RNA interaction (AID 842); parameters: species or system Human immunodeficiency virus 1
T2 sequence (P05866 whole entry): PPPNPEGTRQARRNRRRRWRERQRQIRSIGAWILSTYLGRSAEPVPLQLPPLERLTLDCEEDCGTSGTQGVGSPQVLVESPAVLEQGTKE

[5] = molecular target: Eukaryotic translation initiation factor 4E (Mus musculus, UniProt P63073); test: eIF4E–eIF4G protein interaction inhibitors, dose response, biochemical, TR-FRET (AID 855); assay type: functional;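 further: potency for disrupting eIF4E binding to eIF4GI seen as loss of FRET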
Coagulation factor XII = molecular target: T3, Coagulation factor XII (Homo sapiens, UniProt P00748); test: FXIIa inhibitor potency, concentration-response, biochemical (AID 716); assay type: functional
T3 sequence (P00748 whole entry): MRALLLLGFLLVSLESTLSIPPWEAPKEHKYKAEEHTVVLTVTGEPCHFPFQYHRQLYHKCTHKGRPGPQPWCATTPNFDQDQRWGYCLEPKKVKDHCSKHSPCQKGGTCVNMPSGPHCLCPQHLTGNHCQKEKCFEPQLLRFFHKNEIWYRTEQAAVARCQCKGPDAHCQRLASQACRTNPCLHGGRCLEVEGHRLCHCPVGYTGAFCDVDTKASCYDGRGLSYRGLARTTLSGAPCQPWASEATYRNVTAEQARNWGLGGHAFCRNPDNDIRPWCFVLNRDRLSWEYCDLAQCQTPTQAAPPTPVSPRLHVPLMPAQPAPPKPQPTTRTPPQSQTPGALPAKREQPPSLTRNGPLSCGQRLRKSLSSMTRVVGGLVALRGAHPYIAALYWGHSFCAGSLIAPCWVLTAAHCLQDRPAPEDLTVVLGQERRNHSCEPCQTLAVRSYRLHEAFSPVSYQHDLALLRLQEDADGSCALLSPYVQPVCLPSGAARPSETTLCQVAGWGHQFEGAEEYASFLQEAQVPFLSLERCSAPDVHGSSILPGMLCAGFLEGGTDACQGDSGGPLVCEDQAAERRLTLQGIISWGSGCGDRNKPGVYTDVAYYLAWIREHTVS

Aminopeptidase N = molecular target: T4, Aminopeptidase N (Plasmodium falciparum FcB1/Columbia, UniProt O96935); test: P. falciparum M1AAP inhibitors, biochemical, fluorogenic H-Leu-NHMec substrate, 1536-well (AID 1445); parameters: species or system Plasmodium falciparum 3D7, 3D7
T4 sequence (O96935 whole entry): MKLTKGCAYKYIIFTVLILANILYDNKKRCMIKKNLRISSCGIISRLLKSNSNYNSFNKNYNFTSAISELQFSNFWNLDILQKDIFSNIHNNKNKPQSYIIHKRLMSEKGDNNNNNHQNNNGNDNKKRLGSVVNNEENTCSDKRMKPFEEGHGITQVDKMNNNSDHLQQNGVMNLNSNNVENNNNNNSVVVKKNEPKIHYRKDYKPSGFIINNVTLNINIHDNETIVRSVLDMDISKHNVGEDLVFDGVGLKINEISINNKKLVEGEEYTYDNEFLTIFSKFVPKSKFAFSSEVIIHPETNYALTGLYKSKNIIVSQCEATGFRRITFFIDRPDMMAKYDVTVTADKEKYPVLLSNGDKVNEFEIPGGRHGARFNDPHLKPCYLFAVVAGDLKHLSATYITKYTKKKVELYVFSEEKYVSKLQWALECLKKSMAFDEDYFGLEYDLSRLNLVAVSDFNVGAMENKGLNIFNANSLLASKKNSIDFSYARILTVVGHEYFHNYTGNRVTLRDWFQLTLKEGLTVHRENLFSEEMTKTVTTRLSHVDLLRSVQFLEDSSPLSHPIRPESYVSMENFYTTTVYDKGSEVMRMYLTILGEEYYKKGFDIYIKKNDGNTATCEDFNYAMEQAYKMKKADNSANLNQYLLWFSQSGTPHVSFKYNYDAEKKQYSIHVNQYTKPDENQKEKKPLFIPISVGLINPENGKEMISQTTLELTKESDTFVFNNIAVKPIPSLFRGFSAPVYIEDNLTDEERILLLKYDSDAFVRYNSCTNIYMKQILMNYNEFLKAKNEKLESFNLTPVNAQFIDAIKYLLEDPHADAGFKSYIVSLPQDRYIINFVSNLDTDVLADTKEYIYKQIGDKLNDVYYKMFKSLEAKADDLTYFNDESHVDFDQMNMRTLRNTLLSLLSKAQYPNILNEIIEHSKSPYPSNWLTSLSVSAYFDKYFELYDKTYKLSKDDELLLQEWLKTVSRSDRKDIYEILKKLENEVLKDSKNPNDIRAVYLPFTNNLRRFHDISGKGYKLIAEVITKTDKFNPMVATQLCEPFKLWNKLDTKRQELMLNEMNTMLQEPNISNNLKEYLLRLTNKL

HEK293 [6] = test: cells; conditions: Homo sapiens
[7] = molecular target: T5, Nucleotide-binding oligomerization domain-containing protein 1 (Homo sapiens, UniProt Q9Y239); test: NOD1 signaling inhibitors, SAR follow-up, revised (AID 2333); assay type: functional
T5 sequence (Q9Y239 whole entry): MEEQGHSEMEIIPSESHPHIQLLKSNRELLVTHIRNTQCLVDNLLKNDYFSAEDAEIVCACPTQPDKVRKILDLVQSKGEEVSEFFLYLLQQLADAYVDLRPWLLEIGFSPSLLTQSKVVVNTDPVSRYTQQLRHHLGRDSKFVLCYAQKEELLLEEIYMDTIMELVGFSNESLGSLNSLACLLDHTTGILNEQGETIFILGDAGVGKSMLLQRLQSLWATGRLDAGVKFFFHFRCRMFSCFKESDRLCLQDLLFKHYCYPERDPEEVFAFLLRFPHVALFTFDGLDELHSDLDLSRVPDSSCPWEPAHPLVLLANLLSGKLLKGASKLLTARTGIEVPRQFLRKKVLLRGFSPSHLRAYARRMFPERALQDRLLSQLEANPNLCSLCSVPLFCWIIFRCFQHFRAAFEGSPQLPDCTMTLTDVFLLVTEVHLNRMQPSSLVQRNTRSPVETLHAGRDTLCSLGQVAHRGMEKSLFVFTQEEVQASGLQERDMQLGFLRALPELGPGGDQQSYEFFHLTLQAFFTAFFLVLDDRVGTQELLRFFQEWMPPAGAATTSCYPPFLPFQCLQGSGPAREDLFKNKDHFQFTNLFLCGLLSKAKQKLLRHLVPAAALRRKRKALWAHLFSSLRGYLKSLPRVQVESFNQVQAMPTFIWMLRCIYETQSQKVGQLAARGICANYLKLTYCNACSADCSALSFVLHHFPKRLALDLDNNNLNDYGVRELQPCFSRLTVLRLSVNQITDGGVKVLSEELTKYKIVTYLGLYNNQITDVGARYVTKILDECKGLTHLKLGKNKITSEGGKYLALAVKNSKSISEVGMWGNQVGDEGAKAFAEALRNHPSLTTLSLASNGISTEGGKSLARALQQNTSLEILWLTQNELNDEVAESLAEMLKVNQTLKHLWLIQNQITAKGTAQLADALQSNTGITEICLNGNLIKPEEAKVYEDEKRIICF

Tumor necrosis factor = Tumor necrosis factor (Homo sapiens, UniProt P01375); test: TNFa-triggered NF-kB activation inhibitors, SAR follow-up, cell-based, revised (AID 2337); assay type: functional
HEK293 [8] = test: NOD1 signaling inhibitors, primary screen, cell-based, luminescence, uHTS (AID 1578); assay type: functional; conditions: Homo sapiens
HEK293 [9] = test: NOD2 signaling inhibitors in MDP-stimulated cells, cell-based, uHTS, luminescence (AID 2001); assay type: functional; conditions: Homo sapiens
HEK293 [10] = test: cells; assay type: functional, cell-based; conditions: Homo sapiens
[11] = cytotoxicity in HEK-293T cells, dose response, cytotoxicity control for TCR NF-kB inhibitor project, luminescence, T-cell screen hits (AID 489026); assay type: functional, cell-based;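 further: cells exposed to compound about 14 hours before the viability readout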
HEK293 [12] = test: cells; assay type: functional, cell-based; conditions: Homo sapiens; remark: listed apart in the source
[13] = Luminescence Cell-Based Dose Retest to Confirm Inhibitors of Cancer Stem Cells. [Related pubchem assays (depositor defined):AID2717, AID2721]; assay type: functional; conditions: Homo sapiens
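Wherever AC50 is given: cells exposed to compound for roughly 70 hours or longer before luminescence read.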

Chain of DNA dC->dU-editing enzyme APOBEC-3A (P31941 whole entry): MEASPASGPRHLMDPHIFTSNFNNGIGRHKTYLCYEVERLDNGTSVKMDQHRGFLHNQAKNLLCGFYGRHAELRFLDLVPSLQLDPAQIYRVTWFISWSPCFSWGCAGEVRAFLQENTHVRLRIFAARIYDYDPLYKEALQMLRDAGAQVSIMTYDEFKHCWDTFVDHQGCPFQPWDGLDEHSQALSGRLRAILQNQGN
Chain of Tumor necrosis factor (P01375 whole entry): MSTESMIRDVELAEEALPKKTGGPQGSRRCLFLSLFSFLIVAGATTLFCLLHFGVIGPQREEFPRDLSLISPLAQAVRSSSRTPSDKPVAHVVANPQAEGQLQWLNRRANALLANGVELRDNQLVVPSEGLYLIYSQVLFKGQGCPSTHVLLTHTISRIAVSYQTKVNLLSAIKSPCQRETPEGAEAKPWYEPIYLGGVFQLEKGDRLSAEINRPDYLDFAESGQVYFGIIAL
Chain of DNA dC->dU-editing enzyme APOBEC-3G (Q9HC16 whole entry): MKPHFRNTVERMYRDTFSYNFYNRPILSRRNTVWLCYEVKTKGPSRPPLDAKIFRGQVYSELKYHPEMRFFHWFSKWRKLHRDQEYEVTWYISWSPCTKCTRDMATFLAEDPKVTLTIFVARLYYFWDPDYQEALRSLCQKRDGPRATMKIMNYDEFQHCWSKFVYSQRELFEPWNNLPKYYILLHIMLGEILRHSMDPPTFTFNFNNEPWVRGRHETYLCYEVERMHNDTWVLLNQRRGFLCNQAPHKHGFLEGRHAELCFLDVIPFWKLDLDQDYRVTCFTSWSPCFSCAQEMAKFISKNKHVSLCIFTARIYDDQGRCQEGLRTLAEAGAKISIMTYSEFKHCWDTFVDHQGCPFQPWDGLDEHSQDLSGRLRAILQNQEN
Chain of Large T antigen (P03070 whole entry): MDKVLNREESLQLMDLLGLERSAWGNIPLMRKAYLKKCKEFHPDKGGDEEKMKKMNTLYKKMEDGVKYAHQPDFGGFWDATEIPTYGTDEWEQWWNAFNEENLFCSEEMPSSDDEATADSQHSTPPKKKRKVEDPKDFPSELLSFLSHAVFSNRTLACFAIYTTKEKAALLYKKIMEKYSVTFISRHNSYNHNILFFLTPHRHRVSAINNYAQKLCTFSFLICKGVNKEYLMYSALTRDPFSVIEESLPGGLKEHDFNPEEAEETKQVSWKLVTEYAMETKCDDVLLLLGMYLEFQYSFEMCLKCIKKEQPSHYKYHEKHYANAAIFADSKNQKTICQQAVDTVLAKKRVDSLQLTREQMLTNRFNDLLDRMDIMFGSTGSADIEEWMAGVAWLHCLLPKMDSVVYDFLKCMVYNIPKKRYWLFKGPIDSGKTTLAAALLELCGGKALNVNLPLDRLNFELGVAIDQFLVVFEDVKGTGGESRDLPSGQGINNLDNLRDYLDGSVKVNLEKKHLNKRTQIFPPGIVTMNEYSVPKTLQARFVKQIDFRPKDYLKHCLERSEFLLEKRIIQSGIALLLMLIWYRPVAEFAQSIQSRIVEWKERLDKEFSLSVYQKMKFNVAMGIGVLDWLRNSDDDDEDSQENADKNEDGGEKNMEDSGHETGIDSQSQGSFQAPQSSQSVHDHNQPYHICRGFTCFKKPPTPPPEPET
Chain of Eukaryotic translation initiation factor 4E (P63073 whole entry): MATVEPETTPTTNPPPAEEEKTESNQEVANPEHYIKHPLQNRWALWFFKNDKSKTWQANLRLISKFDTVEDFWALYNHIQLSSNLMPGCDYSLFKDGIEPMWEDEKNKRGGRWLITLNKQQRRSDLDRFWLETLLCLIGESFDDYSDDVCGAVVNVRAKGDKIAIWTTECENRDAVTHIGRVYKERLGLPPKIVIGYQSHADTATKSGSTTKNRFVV

With `COc1cc(C(N)=O)cc(Br)c1OC` the IC50 [1] was 12.2 µM (active) and the IC50 [2] was 9.8 µM (active).
For `CCc1sc(C(=O)Nc2cccc(-n3cnnn3)c2)cc1C`, the IC50 (Insulin-degrading enzyme) was 17.3 µM (not active), the IC50 [3] was > 80 µM (inactive) and the IC50 [4] was 20.7 µM (not active).
For `CCOc1cc(-c2ccc(N)c(OCC)c2)ccc1N`, the IC50 (Large T antigen) was 12.3 µM (active) and the IC50 (Protein Rev) was 2.47 µM (active).
For `O=C(NCc1ccc2c(c1)OCO2)c1ccc2c(c1)OCCO2`, the IC50 [5] was 50 µM (inactive).
With `C=CCSc1nnc(Cc2cc(O)nc(O)n2)n1-c1cc(C)ccc1C` the IC50 (Coagulation factor XII) was > 50 µM (inactive).
With `COc1ccc(S(=O)(=O)N2CCC(C(=O)NCc3ccccc3)CC2)cc1OC` the IC50 (Aminopeptidase N) was 68.4 µM (active).
In the case of `CC(=O)c1cccc(OCC(=O)N2CCN(c3ccc(C(F)(F)F)cn3)CC2)c1`, the IC50 (Insulin-degrading enzyme) is reported as 19.2 µM (not active) and the IC50 [4] is reported as 19.4 µM (not active).
In the case of `O=S(=O)(c1ccc(SCc2cccc(Cl)c2)nc1)N1CCCC1`, the IC50 (Insulin-degrading enzyme) is reported as > 55.9 µM (not active) and the IC50 [4] is reported as 27.1 µM (not active).
In the case of `CC1CCC(C(C)C)C(OCC(O)C[N+]2(C)CCCCC2)C1` (stereo unspecified), the IC50 [1] is reported as 3.66 µM (active) and the IC50 [2] is reported as 2.6 µM (active).
With `CC(=O)N1c2ccc(S(=O)(=O)N3CCC(C(=O)Nc4cccc(C)n4)CC3)cc2CC1C` (stereo unspecified) the IC50 (HEK293 [6]) was > 20 µM (inactive), the IC50 [7] was 4.8 µM (active) and the IC50 (Tumor necrosis factor) was 6.02 µM (active). The EC50 (HEK293 [8]) was 2.79 µM (active), the IC50 (HEK293 [9]) was 12.4 µM (inactive) and the IC50 (HEK293 [10]) was > 20 µM (inactive). The IC50 [11] was > 80 µM (inactive) and the IC50 (HEK293 [12]) was 8.99 µM (active).
For `NC(=O)c1sc(-c2ccsc2)cc1NS(=O)(=O)c1ccc(C(F)(F)F)cc1`, the IC50 (Aminopeptidase N) was 22.1 µM (active) and the AC50 [13] was 11.7 µM (active).
With `CC(=O)c1cccc(NS(=O)(=O)c2c(C)noc2C)c1` the IC50 (Coagulation factor XII) was > 50 µM (inactive).
For `NC(=O)c1ccc(NC(=O)c2ccccc2S(=O)(=O)c2ccccc2[N+](=O)[O-])cc1`, the IC50 (Aminopeptidase N) was 102 µM (active).
With `CC(C)(C)c1ccc(C(=O)ONC(=N)c2cccc([N+](=O)[O-])c2)cc1` the IC50 [7] was > 20 µM (inactive) and the IC50 (Tumor necrosis factor) was > 20 µM (inactive).
In the case of `CN1CCN(C(=O)c2ccc3c(=O)n(Cc4ccc(Cl)cc4)c(=S)[nH]c3c2)CC1`, the IC50 (Coagulation factor XII) is reported as > 50 µM (inactive).
